Experimental data as given in patent US11702646B2, “Methods for modulating RNA splicing” (PTC THERAPEUTICS, INC., priority 2016, dated 2023).

Tests used:
Assay type in all cases: cell-based
[1] = system: RNA transcripts in HDF cell line; assay: ΔPSI (iExon production / exon inclusion), FET and Fold Decrease of RNA transcripts in HDF cell line treated at 3 μM; settings: for FD HDF: Fold Decrease
Description: (§1) Results: The statistically significant value for the likelihood of iExon production (ΔPSI) according to the Fisher's Exact Test (FET) for PNN and HDF cell lines treated with Compound 774 at 3 μM and Fold Decrease (FD) for certain genes tested, where NR represents “Not Reported,” is shown in Table 10.
(§2) The ΔPSI for inclusion of an iExon and resulting modulated expression of RNA transcripts identified is represented by stars, where one star (*) represents ≤25% change in expression, where two stars (**) represent change in expression in a range from <26% to ≤50% change, where three stars (***) represent change in expression in a range from <51% to ≤75% change, and, where four stars (****) represent change in expression in a range from <75% to ≤100% change.
(§3) Results: The statistically significant value for the likelihood of exon inclusion (ΔPSI) according to the Fisher's Exact Test (FET) for PNN and HDF cell lines treated with Compound 774 at 3 μM and Fold Decrease (FD) for certain genes tested, where NR represents “Not Reported,” is shown in Table 10a.
as §2, with “exon” for “iExon”

[2] = system: RNA transcripts in PNN cell line; assay: ΔPSI (iExon production / exon inclusion), FET and Fold Decrease of RNA transcripts in PNN cell line treated at 3 μM; settings: for FD PNN: Fold Decrease
Description: as §1, §2, §3
as §2, with “exon” for “iExon”

[3] = system: iExons for certain genes (as specified in the figures); assay: Dose dependent production of iExons in the presence of compound or control (DMSO); settings: FIGS. 2A-2D, versus control (DMSO)
Description: In some embodiments, a dose-response assay is performed. […] In another embodiment, the dose-response assay comprises: (a) contacting each well of a microtiter plate containing cells with a different concentration of a compound of Formula (I) or a form thereof; (b) determining the amount of an RNA transcript produced by cells in each well; and (c) assessing the change of the amount of the RNA transcript at the different concentrations of the compound or form thereof. […]
In specific embodiments, the amount of alternatively spliced forms of the RNA transcripts of a particular gene are measured to see if there is an alteration in the amount of one, two or more alternatively spliced forms of the RNA transcripts of the gene. In some embodiments, the amount of an isoform(s) encoded by a particular gene is measured to see if there is an alteration in the amount of the isoform(s). In certain embodiments, the levels of spliced forms of RNA are quantified by RT-PCR, RT-qPCR, RNA-Seq, digital color-coded barcode technology, or Northern blot. […] In certain embodiments, splicing is measured in vitro using nuclear extracts. In some embodiments, detection is based on measuring radioactivity or fluorescence. […] In a specific embodiment, modulation of RNA transcripts is assessed as described in the Examples described herein.

[4] = gene FAM198B, exon e3, HDF cells, 3 μM
[5] = gene PRUNE2, exon e18, HDF cells, 3 μM
[6] = gene FAM198B, exon e3, PNN cells, 3 μM
[7] = gene PRUNE2, exon e18, PNN cells, 3 μM

CCc1nc(C)cn2nc(-c3cc(=O)n4cc(C5CCN(C)CC5)cc(C)c4n3)cc12 [Compound 774]
FD HDF [1, 4]: −0.35 | FD HDF [1, 5]: −1.74 | ΔPSI (HDF) ([1]; gene APLP2, exon e7, HDF cells, 3 μM): ** (two stars (**) represent change in expression in a range from <26% to ≤50% change) | ΔPSI (HDF) ([1]; gene AXIN1, exon e9, HDF cells, 3 μM): * (one star (*) represents ≤25% change in expression) | ΔPSI (HDF) ([1]; gene CECR7, exon e5, HDF cells, 3 μM): * (one star (*) represents ≤25% change in expression) | ΔPSI (HDF) ([1]; gene DAGLB, exon e4, HDF cells, 3 μM): * (one star (*) represents ≤25% change in expression) | ΔPSI (HDF) ([1]; gene DLGAP4, exon e8, HDF cells, 3 μM): * (one star (*) represents ≤25% change in expression) | ΔPSI (HDF) ([1]; gene ERCC1, exon e8, HDF cells, 3 μM): * (one star (*) represents ≤25% change in expression) | ΔPSI (HDF) ([1]; gene ERGIC3, exon e8, HDF cells, 3 μM): * (one star (*) represents ≤25% change in expression) | ΔPSI (HDF) [1, 4]: * (one star (*) represents ≤25% change in expression) | ΔPSI (HDF) ([1]; gene GGCT, exon e2, HDF cells, 3 μM): ** (two stars (**) represent change in expression in a range from <26% to ≤50% change) | ΔPSI (HDF) ([1]; gene HAT1, exon e3, HDF cells, 3 μM): * (one star (*) represents ≤25% change in expression) | ΔPSI (HDF) ([1]; gene HPS1, exon e5, HDF cells, 3 μM): * (one star (*) represents ≤25% change in expression) | ΔPSI (HDF) ([1]; gene INPP5K, exon e2, HDF cells, 3 μM): * (one star (*) represents ≤25% change in expression) | ΔPSI (HDF) ([1]; gene MADD, exon e21, HDF cells, 3 μM): * (one star (*) represents ≤25% change in expression) | ΔPSI (HDF) ([1]; gene PPHLN1, exon e3, HDF cells, 3 μM): ** (two stars (**) represent change in expression in a range from <26% to ≤50% change) | ΔPSI (HDF) [1, 5]: ** (two stars (**) represent change in expression in a range from <26% to ≤50% change) | ΔPSI (HDF) ([1]; gene RAP1A, exon e2, HDF cells, 3 μM): * (one star (*) represents ≤25% change in expression) | ΔPSI (HDF) ([1]; gene RNFT1, exon e3, HDF cells, 3 μM): * (one star (*) represents ≤25% change in expression) | ΔPSI (HDF) ([1]; gene RPS6KB2, exon e2, HDF cells, 3 μM): * (one star (*) represents ≤25% change in expression) | ΔPSI (HDF) ([1]; gene SH3YL1, exon e9, HDF cells, 3 μM): * (one star (*) represents ≤25% change in expression) | ΔPSI (HDF) ([1]; gene SKA2, exon e3, HDF cells, 3 μM): * (one star (*) represents ≤25% change in expression) | ΔPSI (HDF) ([1]; gene SPATA18, exon e4, HDF cells, 3 μM): * (one star (*) represents ≤25% change in expression) | ΔPSI (HDF) ([1]; gene STRN3, exon e8, HDF cells, 3 μM): *** (three stars (***) represent change in expression in a range from <51% to ≤75% change) | ΔPSI (HDF) ([1]; gene TMEM189-UBE2V1, exon e6, HDF cells, 3 μM): * (one star (*) represents ≤25% change in expression) | ΔPSI (HDF) ([1]; gene TRIM65, exon e5, HDF cells, 3 μM): ** (two stars (**) represent change in expression in a range from <26% to ≤50% change) | ΔPSI (HDF) ([1]; gene TUBE1, exon e4, HDF cells, 3 μM): * (one star (*) represents ≤25% change in expression) | ΔPSI (HDF) ([1]; gene UBE2V1, exon e3, HDF cells, 3 μM): * (one star (*) represents ≤25% change in expression) | ΔPSI (HDF) ([1]; gene VPS29, exon e2, HDF cells, 3 μM): ** (two stars (**) represent change in expression in a range from <26% to ≤50% change) | ΔPSI (HDF) ([1]; gene ZFP82, iExon inclusion position i4, HDF cell line, Compound 774 at 3 μM): ** (two stars (**) represent change in expression in a range from <26% to ≤50% change) | ΔPSI (HDF) ([1]; gene ZNF37BP, iExon inclusion position i4, HDF cell line, Compound 774 at 3 μM): *** (three stars (***) represent change in expression in a range from <51% to ≤75% change) | ΔPSI (HDF) ([1]; gene ZNF138, iExon inclusion position i3, HDF cell line, Compound 774 at 3 μM): * (one star (*) represents ≤25% change in expression) | ΔPSI (HDF) ([1]; gene ZNF232, iExon inclusion position i4, HDF cell line, Compound 774 at 3 μM): * (one star (*) represents ≤25% change in expression) | ΔPSI (HDF) ([1]; gene ZNF680, exon e3, HDF cells, 3 μM): * (one star (*) represents ≤25% change in expression) | FD PNN [2, 6]: −1.81 | FD PNN [2, 7]: −0.52 | ΔPSI (PNN) ([2]; gene APLP2, exon e7, PNN cells, 3 μM): ** (two stars (**) represent change in expression in a range from <26% to ≤50% change) | ΔPSI (PNN) ([2]; gene AXIN1, exon e9, PNN cells, 3 μM): ** (two stars (**) represent change in expression in a range from <26% to ≤50% change) | ΔPSI (PNN) ([2]; gene CECR7, exon e5, PNN cells, 3 μM): * (one star (*) represents ≤25% change in expression) | ΔPSI (PNN) ([2]; gene DAGLB, exon e4, PNN cells, 3 μM): * (one star (*) represents ≤25% change in expression) | ΔPSI (PNN) ([2]; gene DLGAP4, exon e8, PNN cells, 3 μM): * (one star (*) represents ≤25% change in expression) | ΔPSI (PNN) ([2]; gene ERCC1, exon e8, PNN cells, 3 μM): * (one star (*) represents ≤25% change in expression) | ΔPSI (PNN) ([2]; gene ERGIC3, exon e8, PNN cells, 3 μM): * (one star (*) represents ≤25% change in expression) | ΔPSI (PNN) [2, 6]: * (one star (*) represents ≤25% change in expression) | ΔPSI (PNN) ([2]; gene GGCT, exon e2, PNN cells, 3 μM): ** (two stars (**) represent change in expression in a range from <26% to ≤50% change) | ΔPSI (PNN) ([2]; gene HAT1, exon e3, PNN cells, 3 μM): * (one star (*) represents ≤25% change in expression) | ΔPSI (PNN) ([2]; gene HPS1, exon e5, PNN cells, 3 μM): * (one star (*) represents ≤25% change in expression) | ΔPSI (PNN) ([2]; gene INPP5K, exon e2, PNN cells, 3 μM): * (one star (*) represents ≤25% change in expression) | ΔPSI (PNN) ([2]; gene MADD, exon e21, PNN cells, 3 μM): * (one star (*) represents ≤25% change in expression) | ΔPSI (PNN) ([2]; gene PPHLN1, exon e3, PNN cells, 3 μM): *** (three stars (***) represent change in expression in a range from <51% to ≤75% change) | ΔPSI (PNN) [2, 7]: * (one star (*) represents ≤25% change in expression) | ΔPSI (PNN) ([2]; gene RAP1A, exon e2, PNN cells, 3 μM): * (one star (*) represents ≤25% change in expression) | ΔPSI (PNN) ([2]; gene RNFT1, exon e3, PNN cells, 3 μM): * (one star (*) represents ≤25% change in expression) | ΔPSI (PNN) ([2]; gene RPS6KB2, exon e2, PNN cells, 3 μM): * (one star (*) represents ≤25% change in expression) | ΔPSI (PNN) ([2]; gene SH3YL1, exon e9, PNN cells, 3 μM): * (one star (*) represents ≤25% change in expression) | ΔPSI (PNN) ([2]; gene SKA2, exon e3, PNN cells, 3 μM): * (one star (*) represents ≤25% change in expression) | ΔPSI (PNN) ([2]; gene SPATA18, exon e4, PNN cells, 3 μM): ** (two stars (**) represent change in expression in a range from <26% to ≤50% change) | ΔPSI (PNN) ([2]; gene STRN3, exon e8, PNN cells, 3 μM): **** (four stars (****) represent change in expression in a range from <75% to ≤100% change) | ΔPSI (PNN) ([2]; gene TMEM189-UBE2V1, exon e6, PNN cells, 3 μM): * (one star (*) represents ≤25% change in expression) | ΔPSI (PNN) ([2]; gene TRIM65, exon e5, PNN cells, 3 μM): *** (three stars (***) represent change in expression in a range from <51% to ≤75% change) | ΔPSI (PNN) ([2]; gene TUBE1, exon e4, PNN cells, 3 μM): * (one star (*) represents ≤25% change in expression) | ΔPSI (PNN) ([2]; gene UBE2V1, exon e3, PNN cells, 3 μM): * (one star (*) represents ≤25% change in expression) | ΔPSI (PNN) ([2]; gene VPS29, exon e2, PNN cells, 3 μM): ** (two stars (**) represent change in expression in a range from <26% to ≤50% change) | ΔPSI (PNN) ([2]; gene ZFP82, iExon inclusion position i4, PNN cell line, Compound 774 at 3 μM): ** (two stars (**) represent change in expression in a range from <26% to ≤50% change) | ΔPSI (PNN) ([2]; gene ZNF37BP, iExon inclusion position i4, PNN cell line, Compound 774 at 3 μM): **** (four stars (****) represent change in expression in a range from <75% to ≤100% change) | ΔPSI (PNN) ([2]; gene ZNF138, iExon inclusion position i3, PNN cell line, Compound 774 at 3 μM): *** (three stars (***) represent change in expression in a range from <51% to ≤75% change) | ΔPSI (PNN) ([2]; gene ZNF232, iExon inclusion position i4, PNN cell line, Compound 774 at 3 μM): * (one star (*) represents ≤25% change in expression) | ΔPSI (PNN) ([2]; gene ZNF680, exon e3, PNN cells, 3 μM): * (one star (*) represents ≤25% change in expression) | dose dependent production of iExons for certain genes [3]: dose dependent production of iExons
